The assay concerns the target T1, Type-2 angiotensin II receptor (Homo sapiens, UniProt P50052).
T1 sequence (P50052 whole entry): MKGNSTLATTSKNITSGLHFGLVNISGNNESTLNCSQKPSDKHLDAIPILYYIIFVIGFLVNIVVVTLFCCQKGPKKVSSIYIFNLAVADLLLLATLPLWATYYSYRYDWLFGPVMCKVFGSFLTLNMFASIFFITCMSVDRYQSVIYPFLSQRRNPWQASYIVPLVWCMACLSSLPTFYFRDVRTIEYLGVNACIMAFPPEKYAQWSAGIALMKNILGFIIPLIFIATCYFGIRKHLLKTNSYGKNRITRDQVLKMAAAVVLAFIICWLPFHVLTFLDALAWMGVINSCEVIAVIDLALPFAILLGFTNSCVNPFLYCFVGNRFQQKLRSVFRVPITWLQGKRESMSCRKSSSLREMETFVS
In words: Displacement of [125-I]-[Sar1, Ile8] from recombinant human AT2R transfected in human HEK293 cells incubated for 2 hrs by liquid scintillation counter analysis.

For orientation: IC50 means the concentration at which inhibition is half-maximal. Consider H-DRVYIYPF-OH, for which the IC50 turned out to be 4 nM.

(Values after BindingDB's records for doi:10.1016/j.bmcl.2021.128086 (Vrije Universiteit Brussel, 2021).)
